Source: PubChem BioAssay AID330 (DTP/NCI, 2004)
Values joined by “and” are separate entries in the source; they are usually repeats but may differ in a detail not shown here. Identical values can stand only once. Inconclusive results and toxic doses are left out. Rule for the calls: active = survival T/C of 150% or more; inactive = T/C below 125% in these data.

Tested on: P388 leukemia ip, CD2F1 mice, survival T/C
Assay: NCI In Vivo Anticancer Drug Screen. Data for tumor model P388 Leukemia (intraperitoneal) in CD2F1 (CDF1) mice
Conditions: endpoint: median survival time, higher = longer survival
How it was run: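 Mice carrying the transplanted tumor received test compound or vehicle. Survival was recorded in each group, and the value is the treated-group measurement divided by that of the vehicle-treated control group.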

[1] = dose: 60.0 mg/kg/injection, schedule: Q01DX005 (ip), vehicle: saline with Tween-80
[2] = dose: 120.0 mg/kg/injection, schedule: Q01DX005 (ip), vehicle: saline with Tween-80
[3] = dose: 240.0 mg/kg/injection, schedule: Q01DX005 (ip), vehicle: saline with Tween-80
[4] = dose: 12.5 mg/kg/injection, schedule: Q01DX009 (ip), vehicle: saline with Tween-80
[5] = dose: 25.0 mg/kg/injection, schedule: Q01DX009 (ip), vehicle: saline with Tween-80
[6] = dose: 50.0 mg/kg/injection, schedule: Q01DX005 (ip), vehicle: saline with Tween-80
[7] = dose: 100.0 mg/kg/injection, schedule: Q01DX005 (ip), vehicle: saline with Tween-80
[8] = dose: 200.0 mg/kg/injection, schedule: Q01DX005 (ip), vehicle: saline with Tween-80
[9] = dose: 50.0 mg/kg/injection, schedule: Q01DX009 (ip), vehicle: saline
[10] = dose: 15.0 mg/kg/injection, schedule: Q01DX005 (ip), vehicle: saline with Tween-80
[11] = dose: 30.0 mg/kg/injection, schedule: Q01DX005 (ip), vehicle: saline with Tween-80

Measured: T/C

Cc1c2ccccc2c(C)c2c1cc(F)c1ccccc12
inactive: dose: 50.0 mg/kg/injection, schedule: Q04DX003 (ip), vehicle: Klucel (hydroxypropylcellulose) (HPC) 105 % of control | dose: 100.0 mg/kg/injection, schedule: Q04DX003 (ip), vehicle: Klucel (hydroxypropylcellulose) (HPC) 105 % of control | dose: 200.0 mg/kg/injection, schedule: Q04DX003 (ip), vehicle: Klucel (hydroxypropylcellulose) (HPC) 113 % of control | dose: 400.0 mg/kg/injection, schedule: Q04DX003 (ip), vehicle: Klucel (hydroxypropylcellulose) (HPC) 117 % of control

Cc1nc(C)n2c(C)nnc2c1C
inactive: dose: 25.0 mg/kg/injection, schedule: Q04DX003 (ip), vehicle: saline 101 % of control | dose: 50.0 mg/kg/injection, schedule: Q04DX003 (ip), vehicle: saline 111 % of control | dose: 100.0 mg/kg/injection, schedule: Q04DX003 (ip), vehicle: saline 109 % of control

CC(C)CC(=O)N(CCC#N)c1ncc([N+](=O)[O-])s1
inactive: dose: 100.0 mg/kg/injection, schedule: Q01DX001 (ip), vehicle: Klucel (hydroxypropylcellulose) (HPC) 110 % of control | dose: 200.0 mg/kg/injection, schedule: Q01DX001 (ip), vehicle: Klucel (hydroxypropylcellulose) (HPC) 98 % of control

ClCSCc1ccccc1
inactive: dose: 12.5 mg/kg/injection, schedule: Q01DX009 (ip), vehicle: other 110 % of control | dose: 25.0 mg/kg/injection, schedule: Q01DX009 (ip), vehicle: other 110 % of control | dose: 50.0 mg/kg/injection, schedule: Q01DX009 (ip), vehicle: other 110 % of control

C[C@H]1C(=O)O[C@@H]2CCN3CC=C(COC(=O)[C@](C)(O)[C@@]1(C)O)[C@H]23
inactive: dose: 3.13 mg/kg/injection, schedule: Q01DX010 (ip), vehicle: saline 95 % of control | dose: 6.25 mg/kg/injection, schedule: Q01DX010 (ip), vehicle: saline 100 % of control | dose: 12.5 mg/kg/injection, schedule: Q01DX010 (ip), vehicle: saline 104 % of control | dose: 25.0 mg/kg/injection, schedule: Q01DX010 (ip), vehicle: saline 100 % of control

CN1C(=O)CC(NC(=O)CNC(=O)c2ccccc2)C1=O (centres undefined)
inactive: [1] 97 % of control | [2] 94 % of control | [3] 90 % of control

CCOC(=O)C(C(=O)OCC)c1nc[nH]c1[N+](=O)[O-]
inactive: dose: 25.0 mg/kg/injection, schedule: Q04DX003 (ip), vehicle: saline with Tween-80 108 % of control | dose: 50.0 mg/kg/injection, schedule: Q04DX003 (ip), vehicle: saline with Tween-80 104 % of control | dose: 100.0 mg/kg/injection, schedule: Q04DX003 (ip), vehicle: saline with Tween-80 100 % of control and 97 % of control

Clc1ccc2nc(CBr)cnc2c1
inactive: dose: 6.25 mg/kg/injection, schedule: Q01DX009 (ip), vehicle: saline with Tween-80 104 % of control | [4] 104 % of control | [5] 100 % of control

O=c1[nH]c2nc(Cl)nc(Cl)c2[nH]1
inactive: [6] 98 % of control | [7] 94 % of control | [8] 93 % of control

CN1C(=O)C23SSC1(C)C(=O)N2c1ccccc1C3(C)C (centres undefined)
inactive: dose: 12.5 mg/kg/injection, schedule: Q01DX009 (ip), vehicle: suspension in saline 95 % of control | dose: 25.0 mg/kg/injection, schedule: Q01DX009 (ip), vehicle: suspension in saline 91 % of control | [9] 95 % of control

O=c1ccc2ccc3[nH]onc3c2c1
inactive: [6] 100 % of control | [7] 93 % of control | [8] 88 % of control

COc1c2ccoc2nc2c(OCC=C(C)C)c3c(cc12)OCO3
inactive: dose: 5.0 mg/kg/injection, schedule: Q01DX005 (ip), vehicle: Klucel (hydroxypropylcellulose) (HPC) 101 % of control | dose: 10.0 mg/kg/injection, schedule: Q01DX005 (ip), vehicle: Klucel (hydroxypropylcellulose) (HPC) 100 % of control | dose: 20.0 mg/kg/injection, schedule: Q01DX005 (ip), vehicle: Klucel (hydroxypropylcellulose) (HPC) 100 % of control | dose: 40.0 mg/kg/injection, schedule: Q01DX005 (ip), vehicle: Klucel (hydroxypropylcellulose) (HPC) 101 % of control | dose: 80.0 mg/kg/injection, schedule: Q01DX005 (ip), vehicle: Klucel (hydroxypropylcellulose) (HPC) 94 % of control

Oc1ccccc1
inactive: dose: 0.12 % in 0.5 ml injection vol, schedule: Q01DX009 (ip), vehicle: water 103 % of control | dose: 0.25 % in 0.5 ml injection vol, schedule: Q01DX009 (ip), vehicle: water 103 % of control | dose: 0.5 % in 0.5 ml injection vol, schedule: Q01DX009 (ip), vehicle: water 111 % of control | dose: 1.0 % in 0.5 ml injection vol, schedule: Q01DX009 (ip), vehicle: water 118 % of control

O=C1c2ccccc2C(=O)c2c(O)c(O)cc(O)c21
inactive: dose: 60.0 mg/kg/injection, schedule: Q01DX005 (ip), vehicle: saline 94 % of control | dose: 120.0 mg/kg/injection, schedule: Q01DX005 (ip), vehicle: saline 91 % of control | dose: 240.0 mg/kg/injection, schedule: Q01DX005 (ip), vehicle: saline 94 % of control

CCCCCC(CN(C)C)C(O)CCc1ccc(Cl)c(Cl)c1 (centres undefined)
inactive: dose: 25.0 mg/kg/injection, schedule: Q01DX009 (ip), vehicle: Klucel (hydroxypropylcellulose) (HPC) 106 % of control | dose: 50.0 mg/kg/injection, schedule: Q01DX009 (ip), vehicle: Klucel (hydroxypropylcellulose) (HPC) 98 % of control | dose: 100.0 mg/kg/injection, schedule: Q01DX009 (ip), vehicle: Klucel (hydroxypropylcellulose) (HPC) 104 % of control

CN(C)CCCn1ncc(Sc2cc([N+](=O)[O-])ccc2N)c(Cl)c1=O
inactive: [10] 95 % of control | [11] 94 % of control | [1] 99 % of control and 107 % of control and 94 % of control | [2] 93 % of control | [3] 89 % of control

Cc1cc(C)c(S(=O)(=O)N/N=C(\CBr)c2ccccc2)c(C)c1
inactive: dose: 7.5 mg/kg/injection, schedule: Q01DX005 (ip), vehicle: saline with Tween-80 97 % of control | [10] 91 % of control | [11] 102 % of control | [3] 89 % of control

O=C1c2cscc2C(=O)c2cscc21
inactive: [4] 98 % of control | [5] 100 % of control | dose: 50.0 mg/kg/injection, schedule: Q01DX009 (ip), vehicle: saline with Tween-80 96 % of control | dose: 100.0 mg/kg/injection, schedule: Q01DX009 (ip), vehicle: saline with Tween-80 94 % of control

OC1COC(c2nn(-c3ccccc3)c3nc4ccc(Cl)cc4nc23)C1O (centres undefined)
inactive: dose: 100.0 mg/kg/injection, schedule: Q04DX002 (ip), vehicle: saline with Tween-80 107 % of control | dose: 200.0 mg/kg/injection, schedule: Q04DX002 (ip), vehicle: saline with Tween-80 97 % of control | dose: 400.0 mg/kg/injection, schedule: Q04DX002 (ip), vehicle: saline with Tween-80 95 % of control

NS(=O)(=O)c1cccnc1Nc1ccc(Cl)c(Cl)c1
inactive: [9] 86 % of control | dose: 100.0 mg/kg/injection, schedule: Q01DX009 (ip), vehicle: saline 93 % of control | dose: 200.0 mg/kg/injection, schedule: Q01DX009 (ip), vehicle: saline 101 % of control

CC(=O)Oc1cccc2c1CC(C[Se]c1ccccc1)C(=O)O2 (centres undefined)
inactive: [6] 94 % of control | [7] 89 % of control

CC(C)=C1CC(C)(C)N2CCCC12 (centres undefined)
inactive: dose: 50.0 mg/kg/injection, schedule: Q01DX005 (ip), vehicle: Klucel (hydroxypropylcellulose) (HPC) 100 % of control

O=C1C(S(=O)(=O)O)=CC(=Nc2ccc(O)cc2)c2ccccc21
inactive: [6] 95 % of control | [7] 107 % of control | [8] 102 % of control
